Here are results for 22 compounds from PubChem BioAssay AID434987 (Southern Research Specialized Biocontainment Screening …, 2010).

The structures appear in SMILES notation. Calls of active or inactive are those of the source. How the calls were made is not given here. Some results are limits rather than exact numbers.

The test system of this experiment is M. tuberculosis H37Rv growth inhibition with meropenem. The experiment in a line: dose response, H37Rv, with and without meropenem (AID 434987).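 Further: growth over 7 days at 37 °C before Alamar Blue read on day 9.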
[1] abbreviates: M. tuberculosis H37Rv growth inhibition, measured here: IC50 without meropenem.
[2] abbreviates: M. tuberculosis H37Rv growth inhibition, measured here: IC90 without meropenem.
The mark [3] stands for this setting: measured here: IC90 with meropenem.

In general, IC50 refers to the concentration needed to halve the response being measured. The IC90 is the concentration at which the effect reaches the 90% level. Higher therefore signals a need for much substance. Consider `COc1cc2nc(N3CCN(C(=O)OCc4ccccc4)[C@H](C(=O)NC(C)(C)C)C3)nc(N)c2cc1OC`, for which the IC50 is 64.5 µM (inactive). Under setting [1], this compound displayed an IC50 of 65 µM. This compound also returned an IC90 under setting [2] of 92.7 µM. For the same compound, under setting [3], the IC90 came out at 84 µM.

Regarding `COc1cc(OC)cc(-c2c(C#Cc3ccsc3)c3cc(-c4ccc(OC)nc4)ccc3n2C)c1`, the IC50 was > 100 µM (inactive). Also, the concentration for half-maximal inhibition (IC50) under setting [1] is over 100 µM. Further, the IC90 under setting [2] was over 100 µM. The IC90 under setting [3] was over 100 µM.

Consider `CSc1ncnc2c1ccn2CC(=O)Nc1ccc(C)c(C)c1`, for which the IC50 is 8.44 µM. This compound showed an IC50 under setting [1] of over 100 µM. For the same compound, under setting [2], the IC90 was over 100 µM. Further, the IC90 under setting [3] was over 25 µM.

Turning to `Cc1ccc2[nH]c(O)c(N=Nc3nc4ccccc4s3)c2c1`, the IC50 is 6.76 µM. Under setting [1], this compound had an IC50 of over 100 µM. Under setting [2], this compound showed an IC90 of over 100 µM. This compound also returned an IC90 under setting [3] of over 100 µM.

As for `CC(C)OC(=O)CSc1nc(N2CCOCC2)c2c(c1C#N)CC(C)(C)OC2`, the IC50 was > 100 µM (inactive). Also, the half-inhibitory concentration (IC50) under setting [1] was over 100 µM. Besides, the IC90 under setting [2] was over 100 µM. For the same compound, the IC90 under setting [3] was over 100 µM.

For the compound `CC(=O)Nc1cccc(-n2nnc(SCC(=O)Nc3ccc(F)c(Cl)c3)n2)c1`, the IC50 was > 100 µM (inactive). This compound returned an IC50 under setting [1] of over 100 µM. Also, the IC90 under setting [2] is over 100 µM. This compound also came in with an IC90 under setting [3] of over 100 µM.

Take `COc1ccc2sc(-c3ccc(N(C)C)cc3)c(C#CC(C)(C)O)c2c1`: the IC50 was 19.8 µM. The compound also showed an IC50 under setting [1] of over 100 µM. Under setting [2], this compound yielded an IC90 of over 100 µM. Under setting [3], this compound displayed an IC90 of over 100 µM.

As for `COc1ccc2[nH]c3c(c2c1)CCN=C3C`, the IC50 was > 100 µM (inactive). Under setting [1], this compound returned an IC50 of over 100 µM. The compound also returned an IC90 under setting [2] of over 100 µM. Further, the IC90 under setting [3] is over 100 µM.

As for `CCn1c(=O)c2cc(C(=O)N(C)c3ccccc3F)sc2c2ccccc21`, the IC50 was 29.2 µM. Under setting [1], this compound returned an IC50 of over 100 µM. Moreover, the IC90 under setting [2] is over 100 µM. Under setting [3], this compound registered an IC90 of over 100 µM.

Consider `CCCCNC(=O)c1onc(CSc2ccc(F)c(F)c2)c1C(=O)O`, for which the IC50 is 27.8 µM (inactive). Moreover, the IC50 under setting [1] came to 54.4 µM. The same compound registered an IC90 under setting [2] of over 100 µM. The compound further returned an IC90 under setting [3] of 56.8 µM.

Consider `COc1ccc2nc(SCC(=O)N3CCCCCC3)c(C#N)cc2c1`, for which the IC50 was > 50 µM (inactive). Besides, the IC50 under setting [1] was over 100 µM. This compound gave an IC90 under setting [2] of over 100 µM. In addition, under setting [3], the 90% effect concentration (IC90) was over 50 µM.

Take `O=C(CSc1nnc(SCc2ccccc2)s1)N/N=C/c1ccc(Cl)cc1Cl`: the IC50 was 72.2 µM (inactive). Under setting [1], this compound yielded an IC50 of over 100 µM. For the same compound, the IC90 under setting [2] was over 100 µM. Further, the IC90 under setting [3] was over 100 µM.

As for `COc1ccc(Nc2cc(C(=O)NCc3ccco3)c3ccccc3n2)c(OC)c1`, the IC50 was > 100 µM (inactive). Under setting [1], the IC50 was over 100 µM. The compound further yielded an IC90 under setting [2] of over 100 µM. Under setting [3], this compound came in with an IC90 of over 100 µM.

For `CCOC(=O)c1ccc(C(=O)NNC(=O)C2CC=CCC2)cc1` (stereo not drawn), the IC50 was 8.57 µM (inactive). Moreover, under setting [1], the IC50 stood at 20.9 µM. Besides, under setting [2], the IC90 was 31.9 µM. The IC90 under setting [3] turned out to be 40 µM.

As to `COc1ccc(/C=C2\N=C(SC)N(c3ccccc3OC)C2=O)cc1`, the IC50 was 18.1 µM. In addition, the IC50 under setting [1] is over 100 µM. The same compound came in with an IC90 under setting [2] of over 100 µM. Also, the IC90 under setting [3] was over 25 µM.

In the case of `CSc1nc(-c2ccc(Cl)cc2)nn1S(=O)(=O)c1ccccc1`, the IC50 was 9.85 µM. This compound also registered an IC50 under setting [1] of over 100 µM. Besides, under setting [2], the IC90 is over 100 µM. The same compound registered an IC90 under setting [3] of over 100 µM.

Regarding `O=C(Cn1ncc2c3ccccc3n(Cc3ccccc3F)c2c1=O)NCCCN1CCCC1=O`, the IC50 was > 100 µM (inactive). This compound gave an IC50 under setting [1] of over 100 µM. Besides, the concentration for an effect of 90% (IC90) under setting [2] is over 100 µM. Besides, the IC90 under setting [3] was over 100 µM.

Consider `CC1(c2ccc([N+](=O)[O-])cc2)NC(=O)N(CC(=O)c2ccc3c(c2)OCO3)C1=O` (stereo not drawn), for which the IC50 is > 100 µM (inactive). The same compound came in with an IC50 under setting [1] of over 100 µM. For the same compound, the IC90 under setting [2] is over 100 µM. Besides, the IC90 under setting [3] was over 100 µM.

For the compound `COc1ccc(-c2sc3cc(OC)c(OC)cc3c2C#CCCO)cc1`, the IC50 was > 100 µM (inactive). Moreover, the IC50 under setting [1] is over 50 µM. Moreover, the IC90 under setting [2] was over 50 µM. In addition, under setting [3], the IC90 was over 100 µM.

As for `CSc1nnc(C)c(/C=C/Nc2ccc(Cl)cc2)n1`, the IC50 was 94 µM (inactive). This compound also came in with an IC50 under setting [1] of 94.5 µM. This compound also came in with an IC90 under setting [2] of over 100 µM. The compound also yielded an IC90 under setting [3] of over 100 µM.

For `Cc1cc(C)cc(OCC(=O)NNC(=O)c2ccccn2)c1`, the IC50 was 1.66 µM. In addition, the IC50 under setting [1] stood at 10.9 µM. The IC90 under setting [2] was found to be 22.3 µM. The compound also yielded an IC90 under setting [3] of 16 µM.

For `CC(=O)c1ccccc1OCCOc1ncnc2sccc12`, the IC50 was > 100 µM (inactive). Besides, the IC50 under setting [1] was over 100 µM. The same compound came in with an IC90 under setting [2] of over 100 µM. The compound further showed an IC90 under setting [3] of over 100 µM.
